In ChEMBL document CHEMBL3046853, “Synthesis, antimicrobial evaluation, ot-QSAR and mt-QSAR studies of 2-amino benzoic acid derivatives” (2012):
The source made the active and inactive calls. No cut-off for these calls is given here.

Experiments:
[1] = tested on: Candida albicans; assay: Fungicidal activity against Candida albicans; assay type: functional, organism-based
[2] = tested on: Candida albicans; assay: Antifungal activity against Candida albicans after 2 days by serial dilution technique; assay type: functional
[3] = tested on: Staphylococcus aureus; assay: Bactericidal activity against Staphylococcus aureus; assay type: functional, organism-based
[4] = tested on: Escherichia coli; assay: Antibacterial activity against Escherichia coli after 24 hr by serial dilution technique; assay type: functional
[5] = tested on: Bacillus subtilis; assay: Antibacterial activity against Bacillus subtilis after 24 hr by serial dilution technique; assay type: functional
[6] = tested on: Bacillus subtilis; assay: Bactericidal activity against Bacillus subtilis; assay type: functional, organism-based
[7] = tested on: Staphylococcus aureus; assay: Antibacterial activity against Staphylococcus aureus after 24 hr by serial dilution technique; assay type: functional
[8] = tested on: Aspergillus niger; assay: Antifungal activity against Aspergillus niger after 7 days by serial dilution technique; assay type: functional
[9] = tested on: Aspergillus niger; assay: Fungicidal activity against Aspergillus niger after 7 days by serial dilution technique; assay type: functional, organism-based
[10] = tested on: Escherichia coli; assay: Bactericidal activity against Escherichia coli; assay type: functional, organism-based

With `Cc1ccc(NC(=O)c2ccccc2N)c(C)c1` the Activity [1] was “Active”, the “-logMIC” value [2] was 1.28 and the Activity [3] was “Active”. For the same molecule, the “-logMIC” value [4] was 1.28, the “-logMIC” value [5] was 2.19 and the Activity [6] was “Active”. For the same molecule, the “-logMIC” value [7] was 1.28, the “-logMIC” value [8] was 1.28 and the Activity [9] was “Active”. For the same molecule, the Activity [10] was “Active”.

For `OC(Cn1cncn1)(Cn1cncn1)c1ccc(F)cc1F` [FLUCONAZOLE], the “-logMIC” value [2] was 2.64 and the “-logMIC” value [8] was 2.64.

With `Nc1ccccc1C(=O)Nc1ccc(F)c(Cl)c1` the Activity [1] was “Active”, the “-logMIC” value [2] was 1.33 and the Activity [3] was “Active”. For the same molecule, the “-logMIC” value [4] was 1.33, the “-logMIC” value [5] was 2.23 and the Activity [6] was “Active”. The “-logMIC” value [7] was 1.33, the “-logMIC” value [8] was 1.02 and the Activity [9] was “Active”. For the same molecule, the Activity [10] was “Active”.

In the case of `CC(C)COC(=O)c1ccccc1N` [ISOBUTYL 2-AMINOBENZOATE], the Activity [1] is reported as “Active”, the “-logMIC” value [2] is reported as 0.59 and the Activity [3] is reported as “Active”. For the same molecule, the “-logMIC” value [4] was 1.51, the “-logMIC” value [5] was 1.79 and the Activity [6] was “Active”. For the same molecule, the “-logMIC” value [7] was 0.89, the “-logMIC” value [8] was 1.06 and the Activity [9] was “Active”. The Activity [10] was “Active”.

With `Nc1ccccc1C(=O)N1CCOCC1` [(2-AMINOPHENYL)(MORPHOLINO)METHANONE] the Activity [1] was “Active”, the “-logMIC” value [2] was 1.22 and the Activity [3] was “Active”. For the same molecule, the “-logMIC” value [4] was 1.52, the “-logMIC” value [5] was 1.22 and the Activity [6] was “Active”. For the same molecule, the “-logMIC” value [7] was 1.22, the “-logMIC” value [8] was 1.22 and the Activity [9] was “Active”. The Activity [10] was “Active”.

`CN(C)C(=O)c1ccccc1N` was tested, and the Activity [1] was “Active”, the “-logMIC” value [2] was 0.82 and the Activity [3] was “Active”. For the same molecule, the “-logMIC” value [4] was 1.42, the “-logMIC” value [5] was 2.02 and the Activity [6] was “Active”. The “-logMIC” value [7] was 0.82, the “-logMIC” value [8] was 1.42 and the Activity [9] was “Active”. The Activity [10] was “Active”.

`COc1ccccc1NC(=O)c1ccccc1N` was tested, and the Activity [1] was “Active”, the “-logMIC” value [2] was 1.29 and the Activity [3] was “Active”. The “-logMIC” value [4] was 1.2, the “-logMIC” value [5] was 1.59 and the Activity [6] was “Active”. The “-logMIC” value [7] was 1.29, the “-logMIC” value [8] was 1.29 and the Activity [9] was “Active”. The Activity [10] was “Active”.

For `CCCCCCOC(=O)c1ccccc1N` [HEXYL 2-AMINOBENZOATE], the Activity [1] was “Active”, the “-logMIC” value [2] was 1.25 and the Activity [3] was “Active”. The “-logMIC” value [4] was 1.85, the “-logMIC” value [5] was 2.15 and the Activity [6] was “Active”. For the same molecule, the “-logMIC” value [7] was 1.25, the “-logMIC” value [8] was 1.85 and the Activity [9] was “Active”. For the same molecule, the Activity [10] was “Active”.

In the case of `Nc1ccccc1C(=O)Nc1ccc2ccccc2c1`, the Activity [1] is reported as “Active”, the “-logMIC” value [2] is reported as 1.32 and the Activity [3] is reported as “Active”. For the same molecule, the “-logMIC” value [4] was 1.62, the “-logMIC” value [5] was 2.23 and the Activity [6] was “Active”. For the same molecule, the “-logMIC” value [7] was 1.32, the “-logMIC” value [8] was 1.62 and the Activity [9] was “Active”. The Activity [10] was “Active”.

In the case of `CC(C)CCOC(=O)c1ccccc1N` [ISOPENTYL 2-AMINOBENZOATE], the Activity [1] is reported as “Active”, the “-logMIC” value [2] is reported as 1.22 and the Activity [3] is reported as “Active”. For the same molecule, the “-logMIC” value [4] was 1.82, the “-logMIC” value [5] was 2.12 and the Activity [6] was “Active”. For the same molecule, the “-logMIC” value [7] was 1.22, the “-logMIC” value [8] was 1.22 and the Activity [9] was “Active”. The Activity [10] was “Active”.

For `CCCCCCCOC(=O)c1ccccc1N` [HEPTYL 2-AMINOBENZOATE], the Activity [1] was “Active”, the “-logMIC” value [2] was 1.58 and the Activity [3] was “Active”. For the same molecule, the “-logMIC” value [4] was 1.88, the “-logMIC” value [5] was 1.88 and the Activity [6] was “Active”. The “-logMIC” value [7] was 1.27, the “-logMIC” value [8] was 1.58 and the Activity [9] was “Active”. The Activity [10] was “Active”.

With `CCCCOC(=O)c1ccccc1N` [BUTYL 2-AMINOBENZOATE] the Activity [1] was “Active”, the “-logMIC” value [2] was 1.19 and the Activity [3] was “Active”. For the same molecule, the “-logMIC” value [4] was 1.79, the “-logMIC” value [5] was 2.09 and the Activity [6] was “Active”. The “-logMIC” value [7] was 1.2, the “-logMIC” value [8] was 1.3 and the Activity [9] was “Active”. For the same molecule, the Activity [10] was “Active”.

`Nc1ccccc1C(=O)Nc1ccccc1` was tested, and the Activity [1] was “Active”, the “-logMIC” value [2] was 1.23 and the Activity [3] was “Active”. The “-logMIC” value [4] was 1.23, the “-logMIC” value [5] was 2.13 and the Activity [6] was “Active”. For the same molecule, the “-logMIC” value [7] was 1.23, the “-logMIC” value [8] was 1.23 and the Activity [9] was “Active”. For the same molecule, the Activity [10] was “Active”.

`Nc1ccccc1C(=O)Nc1cccc(Cl)c1` was tested, and the Activity [1] was “Active”, the “-logMIC” value [2] was 1.3 and the Activity [3] was “Active”. The “-logMIC” value [4] was 1.6, the “-logMIC” value [5] was 2.2 and the Activity [6] was “Active”. The “-logMIC” value [7] was 1.3, the “-logMIC” value [8] was 1.3 and the Activity [9] was “Active”. For the same molecule, the Activity [10] was “Active”.

With `CCN(CC)C(=O)c1ccccc1N` the Activity [1] was “Active”, the “-logMIC” value [2] was 1.19 and the Activity [3] was “Active”. For the same molecule, the “-logMIC” value [4] was 1.19, the “-logMIC” value [5] was 2.09 and the Activity [6] was “Active”. For the same molecule, the “-logMIC” value [7] was 1.19, the “-logMIC” value [8] was 1.49 and the Activity [9] was “Active”. The Activity [10] was “Active”.

With `NC(=O)c1ccccc1N` [ANTHRANILAMIDE] the Activity [1] was “Active”, the “-logMIC” value [2] was 1.04 and the Activity [3] was “Active”. The “-logMIC” value [4] was 1.04, the “-logMIC” value [5] was 1.94 and the Activity [6] was “Active”. The “-logMIC” value [7] was 1.04, the “-logMIC” value [8] was 1.64 and the Activity [9] was “Active”. The Activity [10] was “Active”.

In the case of `COc1ccc(NC(=O)c2ccccc2N)cc1`, the Activity [1] is reported as “Active”, the “-logMIC” value [2] is reported as 1.29 and the Activity [3] is reported as “Active”. The “-logMIC” value [4] was 1.29, the “-logMIC” value [5] was 2.19 and the Activity [6] was “Active”. The “-logMIC” value [7] was 1.29, the “-logMIC” value [8] was 1.29 and the Activity [9] was “Active”. The Activity [10] was “Active”.

For `Nc1ccccc1C(=O)Oc1cccc2cccnc12`, the Activity [1] was “Active”, the “-logMIC” value [2] was 1.63 and the Activity [3] was “Active”. For the same molecule, the “-logMIC” value [4] was 1.8, the “-logMIC” value [5] was 1.93 and the Activity [6] was “Active”. For the same molecule, the “-logMIC” value [7] was 1.93, the “-logMIC” value [8] was 1.63 and the Activity [9] was “Active”. For the same molecule, the Activity [10] was “Active”.

`CCCNC(=O)c1ccccc1N` was tested, and the Activity [1] was “Active”, the “-logMIC” value [2] was 1.12 and the Activity [3] was “Active”. The “-logMIC” value [4] was 1.46, the “-logMIC” value [5] was 2.06 and the Activity [6] was “Active”. For the same molecule, the “-logMIC” value [7] was 1.15, the “-logMIC” value [8] was 1.15 and the Activity [9] was “Active”. For the same molecule, the Activity [10] was “Active”.

`Cc1cccc(NC(=O)c2ccccc2N)c1` was tested, and the Activity [1] was “Active”, the “-logMIC” value [2] was 1.26 and the Activity [3] was “Active”. For the same molecule, the “-logMIC” value [4] was 1.26, the “-logMIC” value [5] was 2.16 and the Activity [6] was “Active”. The “-logMIC” value [7] was 1.26, the “-logMIC” value [8] was 1.26 and the Activity [9] was “Active”. For the same molecule, the Activity [10] was “Active”.

With `CCOC(=O)c1ccccc1N` [ETHYL ANTHRANILATE] the Activity [1] was “Active”, the “-logMIC” value [2] was 1.12 and the Activity [3] was “Active”. The “-logMIC” value [4] was 1.72, the “-logMIC” value [5] was 1.91 and the Activity [6] was “Active”. The “-logMIC” value [7] was 1.12, the “-logMIC” value [8] was 1.72 and the Activity [9] was “Active”. For the same molecule, the Activity [10] was “Active”.

For `CCn1cc(C(=O)O)c(=O)c2cc(F)c(N3CCNCC3)cc21` [NORFLOXACIN], the “-logMIC” value [4] was 3.33, the “-logMIC” value [5] was 3.33 and the “-logMIC” value [7] was 3.33.
